Data reported in patent US5840895A, “Triazole intermediates for tricyclic benzazepine and benzothiazepine derivatives” (Meiji Seika Kabushiki Kaisha, priority 1993, dated 1998).
Where two headings read alike, the source gives them in different places.

Legend:
[1] = cited from earlier work
[2] = system: allergic edema reaction at paw; assay: Test for suppressing immediate and delayed allergic reaction (allergic edema reaction at paw, DNP-OA); format: in vivo, rat (male Wister); details: Rattus norvegicus; for inhibition in vivo at 10 mg/kg / inhibition in vivo at 30 mg/kg: oral; for inhibition in vivo at 30 mg/kg: dose: 30 mg/kg of body weight
Experimental: Test for suppressing immediate and delayed allergic reaction
1×10^10 of inviable pertussis and 1 mg of dinitrophenylated ovalbumin (DNP-OA) were administered subcutaneously to the three paws except the right hind paw of male Wister rats having a body weight of 200 g. After 10 days, 5 μg of DNP-OA was further administered subcutaneously to the right hind paw of the animals to induce the allergic edema reaction at paw. The allergy suppressing effect of the test compounds was examined with reference to the edema volumes after 30 minutes and 8 hours of the induction of the allergic reaction as the immediate and delayed allergic reactions, respectively.
[…] On the other hand, only a solution of 0.25% Tween 80 was orally administered to rats as the untreated control, and 100 mg/kg of sodium chromoglycate subcutaneously or orally to rats as the positive control.
The rate of suppressing the allergic edema reaction at paw was calculated from the following equation.
Suppression rate of the allergic edema reaction at paw
A is an average edema volume in the control, and
B is an average edema volume in the drug treated group.

[3] = system: histamine releasing reaction; assay: Test of suppressing histamine releasing reaction (abdominal cavity cells of rats sensitised with anti-DNP-As serum, stimulated with DNP-As); format: cell-based, rat (male Wister); details: Rattus norvegicus; cells 10^5 cell/ml stimulated with 1 μg/ml DNP-As; test compounds 10^-5 -10^-10 M; read-out: IC50 (suppression of histamine releasing reaction)
Experimental: Test of suppressing histamine releasing reaction
Rat anti-dinitrophenylated ascaris protein (referred to hereinafter as DNP-As) serum was prepared according to the method described by Tada, T. and Okumura, K., J. Immun., 106 (4), 1971. Briefly, 1×10^10 of inviable pertussis and 1 mg of DNP-As were administered subcutaneously to the paw of female Brown Norway rats having a body weight of 200 g. After five days, 0.5 mg of DNP-As was further administered intramuscularly to the rear of the animals. Blood samples were taken after three days of the administration to prepare anti-serum.
A 1 ml portion of the serum diluted four times with physiological saline was administered intraperitoneally to male Wister rats. After two days, abdominal cavity was rinsed with phosphate buffer to recover the cells within the abdominal cavity. After the cell concentration was adjusted to 10^5 cell/ml, the cells were stimulated with 1 μg/ml of DNP-As. The amount of histamine released into the supernatant was measured according to the method described by Shore, P. A., Burkhalter, A. H. and Chon, V. H. Jr., J. Pharm. Exp. Ther., 127, 182-186 (1959).
A dose for suppressing 50% of the histamine releasing reaction, i.e., IC50 value, was calculated from the amounts of histamine released in the group treated with the test compounds in the molar concentrations (M) of 10^-5 -10^-10 and in the control group. The IC50 value as the suppressing effect of the drugs is shown in Table 6 with the IC50 value of sodium chromoglycic acid selected as the control compound.

[4] = 0.5 h, edema volume 30 minutes after induction, read-out: Suppressing Rate, Immediate Reaction
[5] = edema volume 8 hours after induction, read-out: Suppressing Rate, Slow reaction
[6] = 0.5 h, 30 minutes after induction, read-out: Suppressing Rate, Immediate Reaction
[7] = 8 hours after induction, read-out: Suppressing Rate, Slow reaction

Row | Structure (SMILES) | inhibition in vivo at 10 mg/kg [2, 4] | inhibition in vivo at 10 mg/kg [2, 5] | IC50 [3] | inhibition in vivo at 30 mg/kg [2, 6] | inhibition in vivo at 30 mg/kg [2, 7] | other results
1 | O=C(O)c1cc(=O)c2c(OCC(O)COc3cccc4oc(C(=O)O)cc(=O)c34)cccc2o1 [DSCG, sodium chromoglycate, reference compound] | – | – | – | – | – | effectiveness on oral administration [1]: no effectiveness; inhibition in vivo at 100 mg/kg ([2]; po, 0.5 h, orally, 30 minutes after induction (positive control), read-out: Suppressing Rate, Immediate Reaction): 16%; inhibition in vivo at 100 mg/kg ([2]; po, orally, 8 hours after induction (positive control), read-out: Suppressing Rate, Slow reaction): 20%; inhibition in vivo at 100 mg/kg ([2]; sc, 0.5 h, subcutaneously, 30 minutes after induction (positive control), read-out: Suppressing Rate, Immediate Reaction): 75%; inhibition in vivo at 100 mg/kg ([2]; sc, subcutaneously, 8 hours after induction (positive control), read-out: Suppressing Rate, Slow reaction): 53%
2 | CCOc1ccc2c(=O)c3[nH]nnc3c(=O)[nH]c2c1 [Example 27, 7-ethoxy-4(5H),10-dioxo-1H-1,2,3-triazolo[4,5-c][l]benzazepine] | 48% | 55% | 8.6 nM | – | – | –
3 | Cc1ccc2c(=O)c3[nH]nnc3c(=O)[nH]c2c1 [Example 4, 7-methyl-4(5H),10-dioxo-1H-1,2,3-triazolo[4,5-c][l]benzazepine] | – | – | 2.3 nM | 70.5% | 57.7% | –
4 | CC(=O)/C=C/c1ccc2c(=O)c3[nH]nnc3c(=O)[nH]c2c1 [Example 20, 7-(3-oxo-(E)-butenyl)-4(5H),10-dioxo-1H-1,2,3-triazolo[4,5-c][l]benzazepine] | 63% | 51% | 2.9 nM | – | – | –
5 | O=c1[nH]c2ccccc2c(=O)c2[nH]nnc12 [Example 1, 4(5H),10-dioxo-1H-1,2,3-triazolo[4,5-c][l]benzazepine] | – | – | 12 nM | 56.4% | 24.5% | –
